# Read-outs that look alike come from different tables or passages of the source.
# What was measured:
# [1] = test system: human sperm; test: Sperm immobilization assay (SIA), 3 h incubation, motility by CASA; assay type: cell-based; details: for EC50: motile fractions of human sperm incubated 3 h with increasing concentrations, 37° C., read-out: EC50 (concentration of compound required for 50% sperm motility loss)
# Protocol: Sperm Immobilization Assay (SIA): To evaluate the spermicidal effects of complexes 1-4 a highly motile fraction of pooled donor sperm(n=5) was prepared by discontinuous (90-45%) Percoll gradient (Conception Technologies, San Diego, Calif.) centrifugation and the “swim-up” method as described previously (Aitken et al., 1989, Biol. Reprod. 40:183-197). All donor specimens were obtained after informed consent and in compliance with the guidelines of the Hughes Institutional Review Board. Motile sperm (≧10×10^6/ml) were suspended in 1 ml of Biggers, Whitten, and Whittingam's medium (BWW) containing 0.3% BSA (fraction V; Sigma Chemical Co., St. Louis, Mo.) in the presence and absence of serial 2-fold dilutions of test substance (250 μM -1.9 μM) in 0.25% dimethyl sulfoxide (DMSO). For each experiment, fresh stock solutions (100 mM) of vanadium compounds were prepared in DMSO. A corresponding volume of DMSO […] was added to control sperm suspension. After 3hours of incubation at 37° C., the percentage of motile sperm was evaluated by computer-assisted sperm motion analysis (CASA) as described previously (Aitken et al., 1989, Supra). The percentages of motilities were compared with those of sham-treated control suspensions of motile sperm. The spermicidal activity of test compounds was expressed as the EC50 values (the final concentration of the compound in medium that decreases the proportion of motile sperm by 50%).
# (§1) Sperm Kinematic Parameters: For CASA, 4 μl each of sperm suspension was loaded into two 20 μm Microcell chambers placed onto a counting chamber at 37° C. At least 5-8 fieldsper chamber were scanned for analysis using a Hamilton Thorne Integrated Visual Optical System (IVOS) version 10 instrument (Hamilton Thorne Research Inc., Danvers, Mass.). Each field was recorded for 30 seconds. The Hamilton Thorne computer calibrations were set at 30 frames at a frame rate of 30 images/seconds. Other settings were as follows: minimum contrast 8; minimum size 6; low-size gate, 1.0; high-size gate, 2.9; low-intensity gate, 0.6; high-intensity gate, 1.4; phase-contrast illumination; low path velocity at 10 μm/seconds and threshold straightness at 80%; magnification factor, 1.95. The performance of the analyzer was periodically checked using the playback function.
# The attributes of sperm kinematic parameters evaluated included numbers of motile (MOT) and progressively (PRG) motile sperm; curvilinear velocity (VCL; a measure of the total distance traveled by a given sperm during the acquisition divided by the time elapsed); average path velocity (VAP; the spatially averaged path that eliminates the wobble of the sperm head), straight-line velocity (VSL; the straight-line distance from beginning to end of track divided by time taken), beat-cross frequency (BCF; frequency of lateral head displacement), (ALH; the mean width of sperm head oscillation), and the derivatives, straightness (STR=VSL divided by VAP×100), linearity (LIN=VSL divided by VCL×100, departure of sperm track from a straight line). Data from each individual cell track were recorded and analyzed. At least 200 sperm were analyzed for each aliquot sampled.
# A non-linear regression analysis was used to find the EC50 and T1/2 values (the concentration of the compound, and the time required for 50% sperm motility loss, respectively) from the concentration effect curves.
# [2] = test system: human sperm; test: Time course of sperm immobilization by CASA; assay type: cell-based; details: motile sperm incubated of each complex (footnote); motility by CASA at timed intervals
# Protocol: […] At timed intervals (every 5 and 10 minutes) aliquots (4μl) were transferred to two 20 μm Microcell (Conception Technologies) chambers, and sperm motility was assessed by CASA.
# as §1, with “function. […]” for “function.”
# [3] = Stability of the complexes as solids or in solution (cyclic voltammetry and UV-vis spectroscopy)
# Protocol: UV/Vis Spectra: A UV/vis polarizer attachment was used for the polarization experiments. UV-vis spectra were recorded in a quartz cell or cuvette on a Beckman Model DU 7400 spectrophotometer and the spectral bands were registered in the 200-800 nm range.
# Electrochemical Measurements: Electrochemical measurements were performed on a Bioanalytical Systems B/W 100b electrochemical analyzer with internal resistance (IR) compensation. The cyclic voltammograms taken in acetonitrile were obtained in a 0.1 M Bu4NPF6 (TABP) electrolyte solution with a 0.1 M Ag/AgNO3 reference electrode, a Platinum Disc working electrode, and a platinum wire auxiliary electrode. Solutions were purged with nitrogen: and scanned at 200 mV/s. Aqueous cyclic voltammograms were taken in a standard PBS solution, using a Ag/AgCl reference electrode, a glassy carbon working electrode, and a platinum wire auxiliary electrode. Solutions were purged with nitrogen and scanned at 200 mV/s. All potentials were referenced to the ferrocene-ferrocinium couple (E1/2=0.185 V vs Ag/AgCl in PBS).
Compound,EC50 [1] [nM],T1/2 (time required for 50% sperm motility loss) [2] [min],also measured
"[O-]c1ccccc1[O-].[V+2].c1cc[cH-]c1.c1cc[cH-]c1 [Cp2V(cat) (2), Vanadocene catecholate.]",2400,5.8,–
"[O-]c1c([O-])c(Cl)c(Cl)c(Cl)c1Cl.[V+2].c1cc[cH-]c1.c1cc[cH-]c1 [Cp2V(catCl4) (1), Vanadocene tetrachloro catecholate]",> 250000,–,"spermicidal activity in words ([1]; in the concentration ranges examined): no spermacidal activity; t1/2 (stability) ([3]; in acetonitrile, air, by cyclic voltammetry and UV-vis spectroscopy): about 2 hr.; solubility in water: not soluble in water"
"CC(C)(C)c1cc([O-])c([O-])c(C(C)(C)C)c1.[V+4].c1cc[cH-]c1.c1cc[cH-]c1 [Cp2V(dbcat) (5), Vanadocene 1,3 ditertbutyl catecholate]",–,–,t1/2 (stability) [3]: about 2 min.
"Vanadocene 1,3-diisopropyl catecholate [Cp2V(dpcat) (4)]",290,–,–
Vanadocene mono-tertbutyl catecholate [Cp2V(mbcat) (3)],100,5.4,–

# From patent publication US6465450B2, “Vanadium (IV) complexes containing catecholate ligand and having spermicidal activity” (Parker Hughes Institute, priority 1999, dated 2002)
